Experimental findings from patent publication US7812014B2, “Bicyclic 6-alkylidene-penems as β-lactamase inhibitors” (priority 2002, dated 2010) are described below.

In general, IC50 refers to the midpoint of a concentration-inhibition curve. For orientation: ED50 means the dose that gives a 50% effect, or the effect in half of the subjects.

Structures are written as SMILES. Where a name gives a salt, the structure may show the parent alone. Read-outs that look alike come from different tables or passages of the source.

Test [1] addresses class A β-lactamase Imi-1 (Enterobacter cloacae, UniProt Q46991). The test can be described thus: IC50 determination, β-lactamase inhibition (nitrocefin, spectrophotometric). The format is biochemical. On the procedure: (§1) IC50 Determination for the Penem Inhibitor
(§2) β-Lactamase inhibitory activity of the penem inhibitors was determined spectrophotometrically as described by Bush et al., [Bush, K., Macalintal, C., Rasmussen, B. A., Lee, V. and Yang, Y. Antimicrobial Agents and Chemotherapy 1993, 37, 851]. Homogeneously purified class A β-lactamases TEM-1 from E. coli and Imi-1 from Enterobacter cloacae, class B enzyme CcrA from Bacteroides fragilis and class C enzyme AmpC from Enterobacter cloaca were employed in the assay. The enzyme concentrations for TEM-1, Imi-1, CcrA and AmpC were 4.3, 7.1, 1.2 and 2.1 nM, respectively. A wide range of inhibitor concentrations were prepared in 50 mM PO4, pH 7.0 to include the possible IC50 values. The substrate used to initiate the enzyme reaction was nitrocefin at 50 μg/ml in the same buffer as the inhibitor. Initially the enzyme and inhibitor (20 μl each) were preincubated for 10 minutes at 25° C. prior to the addition of 160 μl volume of nitrocefin. Initial rates of hydrolysis were monitored for 5 minutes at 495 nm using a Molecular Devices Spectra Max 250 with kinetic protocol of SoftMax Program. Readings from the Spectra Max 250 were exported and transferred to Microsoft Excel. The percent of inhibition of each inhibitor concentration was calculated based on the control enzyme activity. The inhibitor concentration that caused a 50% reduction in the enzymatic activity (IC50) was determined graphically.

The target of the next test is class B enzyme CcrA (Bacteroides fragilis, UniProt P25910). Described as above. The format is biochemical. The protocol: as §1, §2
Chain of class B enzyme CcrA (P25910 19-249): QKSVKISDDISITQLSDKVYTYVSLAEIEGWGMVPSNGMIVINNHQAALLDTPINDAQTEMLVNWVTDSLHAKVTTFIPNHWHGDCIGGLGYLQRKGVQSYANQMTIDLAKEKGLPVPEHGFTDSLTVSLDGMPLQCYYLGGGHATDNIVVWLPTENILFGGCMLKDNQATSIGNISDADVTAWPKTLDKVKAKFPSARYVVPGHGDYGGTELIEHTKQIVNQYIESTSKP
In test [2] the target is class A β-lactamase TEM-1 (Escherichia coli, UniProt P62593). Described as above. Type of test: biochemical, E. coli. The settings on record: enzyme 4.3 nM; 10 minutes preincubation at 25° C.; nitrocefin 50 μg/ml; pH 7.0. The protocol:
as §1, §2

Test [3] relates to Clinical isolates that have been adapted to cause infection in mice. The test can be described thus: In vivo antibacterial protection, 7 day survival of infected mice. Details: species or system mice strain CD-1. From the text: In Vivo Antibacterial Protection
Female mice strain CD-1, approximately 18-22 grams, were received from Charles River Laboratories and quarantined 7 days prior to use. In addition, mice may be rendered neutropenic using cytoxan.
Clinical isolates that have been adapted to cause infection in mice, are used in the experiment, including infections with strains of E. coli, K. pneumoniae, M. morganii, E. cloacae, S. marcescens, C. freundii, staphylococci, streptococci, P. aeruginosa and N. gonorrhoeae.
Mice are challenged by injecting 0.5 ml intraperitoneally or 0.05 ml intranasally of a predetermined bacterial inoculum suspended in broth, saline or hog gastric mucin (supplemented with dried bovine hemoglobin for N. gonorrhoeae). […] Antibacterial doses (dose concentration prepared by two fold serial dilutions of the antibiotic) are dissolved or suspended in 0.2% aqueous agar or methocel, phosphate buffered saline or an adjuvant are administered orally, subcutaneously or intravenously in the following manner: • a) Orally or subcutaneously: Dose volume of 0.5 ml administered ½ hr after infection. A second dose may be administered 3 hr. after infection for treatment of infections with more virulent organisms. • b) Intravenously: Dose volume of 0.2 ml, administered ½ hr. after infection. For the treatment of infections with more virulent organisms, more doses, up to 48 hr may be administered. (Intravenous dosing will not exceed 3 doses/24 hr period.) • c) Oral pretreatment: Under special circumstances, the pH of the stomach needs to be adjusted in order to increase the gastric stability of the antibiotic. For this purpose, 0.5 ml of phosphate buffered saline (pH7.8, 0.06M) (or specific approved adjuvant) is administered orally ½ hr after infection, followed 5 minutes later by 0.5 ml of antibiotic (also orally) contained in phosphate buffered saline (pH7.8, 0.06M). Animal Species
A detailed explanation as to the number of animals needed for the determination of in vivo efficacy follows: • A) Novel antibiotics are tested at 5 different dose levels with 5 mice per dose level at each of three routes of administration (oral, subcutaneous and intravenous). […] This would require 25 mice/route with 3 routes/antibiotic or 75 mice per novel compound tested. One to two novel antibiotics will be tested per experiment (75-150 mice) • B) The effectiveness of the new compound must be compared to that of a standard, or antibiotic of known effectiveness. Known or previously tested antibiotics are tested at 5 dose levels with 5 mice per dose level by a single route of administration, for a total of 25 mice/antibiotic. Usually 3-6 antibiotics will be tested per experiment. (75-150 mice). • C) Untreated controls—In each of the above tests, untreated animals are infected with 3 different concentrations of bacterial inoculum with 10 mice per concentration (30 mice total in each and every test). These untreated controls are used to determine and maintain the infection level between 10-100 LD50s as required for test to test comparison and validity. Determination of Protective Effects of Antibacterial Agents:
The protective effects of the antibacterial agent(s) are measured by the survival of the infected untreated as compared to the treated animals. […] A census of survivors is taken twice daily and at that time dead as well as moribund animals are removed. […] The test is performed three times on separate days to provide a statistically valid number of animals and to minimize variation in test results on a day to day and test to test basis.

Another test has as its target class C enzyme AmpC (Enterobacter cloacae, UniProt P05364). The test can be described thus: biochemical. Details: species or system Enterobacter cloaca. On the procedure:
as §1, §2

The mark [4] stands for this setting: enzyme 1.2 nM, 10 minutes preincubation at 25° C., nitrocefin 50 μg/ml, pH 7.0, read-out: IC50 (nM) Class B Ccr.
[5] abbreviates: Mus musculus, 168 h, Ratio of Piperacillin vs. Inhibitor 4:1, read-out: ED50.
Setting [6] is: enzyme 2.1 nM, 10 minutes preincubation at 25° C., nitrocefin 50 μg/ml, pH 7.0, read-out: IC50 (nM) Class C AmpC.
Setting [7] is: enzyme 7.1 nM, 10 minutes preincubation at 25° C., nitrocefin 50 μg/ml, pH 7.0, read-out: IC50 (nM) Class A Imi.
The mark [8] stands for this setting: Mus musculus, 168 h, Ratio of Piperacillin vs. Inhibitor not given, read-out: ED50.

Chain of class C enzyme AmpC (P05364 21-381): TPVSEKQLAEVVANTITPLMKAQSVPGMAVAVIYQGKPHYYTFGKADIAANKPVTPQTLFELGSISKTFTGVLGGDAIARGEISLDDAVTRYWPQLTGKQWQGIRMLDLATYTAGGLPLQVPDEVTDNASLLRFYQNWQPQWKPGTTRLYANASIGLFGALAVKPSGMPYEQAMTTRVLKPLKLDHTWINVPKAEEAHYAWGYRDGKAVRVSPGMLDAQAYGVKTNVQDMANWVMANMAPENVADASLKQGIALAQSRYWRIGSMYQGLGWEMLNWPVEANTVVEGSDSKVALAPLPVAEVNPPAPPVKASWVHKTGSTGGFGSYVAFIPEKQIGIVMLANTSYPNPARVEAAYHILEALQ
Chain of class A β-lactamase TEM-1 (P62593 24-286 limits assumed): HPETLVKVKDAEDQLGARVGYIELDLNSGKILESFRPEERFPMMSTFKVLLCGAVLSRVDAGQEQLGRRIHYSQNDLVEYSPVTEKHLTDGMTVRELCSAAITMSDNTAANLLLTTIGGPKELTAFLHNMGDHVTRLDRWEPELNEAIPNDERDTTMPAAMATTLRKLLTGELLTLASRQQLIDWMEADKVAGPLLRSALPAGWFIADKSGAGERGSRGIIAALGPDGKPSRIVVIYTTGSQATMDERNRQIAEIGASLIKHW
Chain of class A β-lactamase Imi-1 (Q46991 28-292): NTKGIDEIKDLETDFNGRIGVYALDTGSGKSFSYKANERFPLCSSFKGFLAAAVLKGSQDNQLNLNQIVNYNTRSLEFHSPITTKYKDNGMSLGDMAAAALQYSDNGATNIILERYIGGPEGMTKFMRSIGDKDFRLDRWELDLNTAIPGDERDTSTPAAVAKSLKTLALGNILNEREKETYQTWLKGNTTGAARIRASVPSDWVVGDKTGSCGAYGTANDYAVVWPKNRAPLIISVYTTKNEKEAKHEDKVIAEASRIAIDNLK

Turning to `O=C(O)C1=CS[C@@H]2/C(=C\c3cn4c(n3)COCC4)C(=O)N12` [Example 7, (5R),(6Z)-6-(5,6-Dihydro-8H-imidazo[2,1-c][1,4]oxazin-2-ylmethylene)-7-oxo-4-thia-1-azabicyclo[3.2.0]hept-2-ene-2-carboxylic acid, sodium salt], the IC50 in test [1] was found to be 7.8 nM; at class B enzyme CcrA (setting [4]), 66 nM; in test [2], 0.4 nM; at class C enzyme AmpC (setting [6]), 4.8 nM. In addition, the ED50 in test [3] (setting [5]) was found to be 22.8 mg/kg.

As to `O=C([O-])C1=CS[C@@H]2/C(=C\c3cc4n(n3)CCCC4)C(=O)N12.[Na+]` [Example 9, (5R)(6Z)-7-Oxo-6-(4,5,6,7-tetrahydropyrazolo[1,5-a]pyridin-2-ylmethylene)-4-thia-1-azabicyclo[3.2.0]hept-2-ene-2-carboxylic acid, sodium salt], the concentration for half-maximal inhibition (IC50) in test [1] amounted to 90 nM; at class B enzyme CcrA (setting [4]), 62 nM; in test [2], 2.2 nM; against class C enzyme AmpC, 3.2 nM. Further, the ED50 in test [3] (setting [5]) is 31.3 mg/kg.

For `O=C([O-])C1=CS[C@@H]2/C(=C\c3cc4n(n3)CCSC4)C(=O)N12.[Na+]` [Example 11, (5R)(6Z)-6-(6,7-Dihydro-4H-pyrazolo[5,1-c][1,4]thiazin-2-ylmethylene)-7-oxo-4-thia-1-azabicyclo[3.2.0]hept-2-ene-2-carboxylic acid, sodium salt], the IC50 in test [1] (setting [7]) stood at 18 nM; on class B enzyme CcrA (setting [4]) it was 61 nM; in test [2], 1 nM; against class C enzyme AmpC it was 1.2 nM. In test [3] (setting [5]), the median effective dose (ED50) worked out at 13.9 mg/kg.

For the compound `O=C([O-])C1=CS[C@@H]2/C(=C\c3cc4n(n3)CSC4)C(=O)N12.[Na+]` [Example 12, (5R)(6Z)-7-Oxo-6-(4H-5-thia-1,6a-diazapentalen-2-ylmethylene)-4-thia-1-azabicyclo[3.2.0]hept-2-ene-2-carboxylic acid, sodium salt], the IC50 was determined as 56 nM in test [1] (setting [7]), 110 nM on class B enzyme CcrA (setting [4]), 1.4 nM in test [2] and 1.5 nM at class C enzyme AmpC. The median effective dose (ED50) in test [3] (setting [5]) was found to be 20 mg/kg.

`O=C([O-])C1=CS[C@@H]2/C(=C\c3cn4c(n3)CSC4)C(=O)N12.[Na+]` [Example 13, (5R)(6Z)-6-(7H-Imidazo[1,2-c]thiazol-2-ylmethylene)-7-oxo-4-thia-1-azabicyclo[3.2.0]hept-2-ene-2-carboxylic acid, sodium salt]: the half-inhibitory concentration (IC50) in test [1] (setting [7]) stood at 16 nM; on class B enzyme CcrA (setting [4]), 160 nM; in test [2], 2.9 nM; on class C enzyme AmpC it was 3.1 nM. Moreover, in test [3] (setting [8]), the ED50 was 18 mg/kg.

Consider `CN1CCc2sc(C=C3C(=O)N4C(C(=O)O)=CSC34)cc2C1` (stereo not drawn) [Example 17, 6-(5-Methyl-4,5,6,7-tetrahydro-thieno[3,2-c]pyridin-2-ylmethylene)-7-oxo-4-thia-1-aza-bicyclo[3.2.0]hept-2-ene-2-carboxylic acid], for which the half-inhibitory concentration (IC50) amounted to 24 nM in test [1] (setting [7]), 28 nM at class B enzyme CcrA (setting [4]), 12 nM in test [2] and 26 nM on class C enzyme AmpC (setting [6]). In addition, the 50% effective dose (ED50) in test [3] (setting [5]) amounted to 37.9 mg/kg.

As for `O=C(O)C1=CSC2C(=Cc3cn4c(n3)CCCCC4)C(=O)N12` (stereo not drawn) [Example 19, 7-Oxo-6-(6,7,8,9-tetrahydro-5H-imidazo[1,2-a]azepin-2-ylmethylene)-4-thia-1-aza-bicyclo[3.2.0]hept-2-ene-2-carboxylic acid], the IC50 worked out at 2700 nM in test [1] (setting [7]), 170 nM on class B enzyme CcrA (setting [4]), 4.8 nM in test [2] and 4.6 nM at class C enzyme AmpC (setting [6]). The ED50 in test [3] (setting [5]) is 59.2 mg/kg.

For `O=C(O)C1=CS[C@@H]2/C(=C\c3cc4n(n3)CCS(=O)(=O)C4)C(=O)N12` [Example 24, (5R),(6Z)-6-(5,5-Dioxo-4,5,6,7-tetrahydro-5λ^6-pyrazolo[5,1-c][1,4]thiazin-2-ylmethylene)-7-oxo-4-thia-1-azabicyclo[3.2.0]hept-2-ene-2-carboxylic acid, sodium salt], the IC50 worked out at 56 nM in test [1] (setting [7]), 4 nM at class B enzyme CcrA, 1.1 nM in test [2] and 1.5 nM at class C enzyme AmpC (setting [6]). The ED50 in test [3] (setting [8]) was found to be 64 mg/kg.

For the compound `O=C(O)C1=CS[C@@H]2/C(=C\c3cc4n(n3)CCNC4)C(=O)N12` [Example 25, (5R),(6Z)-7-Oxo-6-(4,5,6,7-tetrahydropyrazolo[1,5-a]pyrazin-2-ylmethylene)-4-thia-1-aza-bicyclo[3.2.0]hept-2-ene-2-carboxylic acid, sodium salt], the IC50 in test [1] (setting [7]) turned out to be 123 nM; at class B enzyme CcrA (setting [4]) it was 162 nM; in test [2] it was 1.1 nM; on class C enzyme AmpC (setting [6]), 2.7 nM. Besides, the ED50 in test [3] (setting [8]) came to 30 mg/kg.

With `CC1(C)Cc2cc(/C=C3/C(=O)N4C(C(=O)[O-])=CS[C@H]34)nn2C1.[Na+]` [Example 26, (5R)(6Z)-6-(5,5-Dimethyl-4H-1,6a-diazapentalen-2-ylmethylene)-7-oxo-4-thia-1-azabicyclo[3.2.0]hept-2-ene-2-carboxylic acid, sodium salt], the IC50 in test [1] (setting [7]) amounted to 54 nM; at class B enzyme CcrA (setting [4]), 89 nM; in test [2], 0.73 nM; against class C enzyme AmpC it was 2.3 nM. In test [3] (setting [8]), the ED50 was determined as 30 mg/kg.

`O=C(O)C1=CS[C@@H]2/C(=C\c3cc4c(o3)CCC4)C(=O)N12` [Example 27, (5R),(6Z)-6-(5,6-Dihydro-4H-cyclopenta[b]furan-2-ylmethylene)-7-oxo-4-thia-1-azabicyclo[3.2.0]hept-2-ene-2-carboxylic acid, sodium salt]: the IC50 came out at 5.5 nM in test [1] (setting [7]), 73 nM on class B enzyme CcrA (setting [4]), 2 nM in test [2] and 2 nM on class C enzyme AmpC (setting [6]). Besides, the median effective dose (ED50) in test [3] (setting [8]) was found to be 28 mg/kg.

For `O=C([O-])C1=CS[C@@H]2/C(=C\c3cc4n(n3)CSC4)C(=O)N12.[Na+]` [Example 31, (5R)(6Z)-7-Oxo-6-(4H-5-thia-1,6a-diazapentalen-2-ylmethylene)-4-thia-1-azabicyclo[3.2.0]hept-2-ene-2-carboxylic acid, sodium salt], the half-inhibitory concentration (IC50) in test [1] (setting [7]) is 56 nM; at class B enzyme CcrA (setting [4]), 110 nM; in test [2] it was 1.4 nM; at class C enzyme AmpC (read-out: IC50 (nM) Class C AmpC, pH 7), 1.5 nM. For the same compound, the 50% effective dose (ED50) in test [3] (Ratio of Piperacillin vs. Inhibitor not given) is on record as 20 mg/kg.
